Measurements: ChEMBL document CHEMBL1667805, “Synthesis of new C5-(1-substituted-1,2,3-triazol-4 or 5-yl)-2'-deoxyuridines and their antiviral evaluation” (Eur J Med Chem, 2011)
Active and inactive are the calls of the source. No cut-off for these calls is given here.

What was measured:
[1] = test system: Human immunodeficiency virus 1; assay: Antiviral activity against HIV1 3B infected in human […] cells assessed as virus-induced CEM giant cell formation after 4 days; type: functional, organism-based
L1210 = assay: cells; conditions: Mus musculus, L1210, 48 h
Influenza B virus = type: functional, organism-based; conditions: MDCK
Vaccinia virus = assay: microbe, parasite or virus in culture; conditions: Orthopoxvirus vaccinia, HEL
[2] = test system: Vesicular stomatitis virus; type: functional, organism-based; conditions: HeLa
Human betaherpesvirus 5 [3] = assay: microbe, parasite or virus in culture; conditions: Human betaherpesvirus 5, Davis, HEL
[4] = test system: Vesicular stomatitis virus; type: functional, organism-based; conditions: MDCK
Influenza A virus [5] = type: functional, organism-based; conditions: H1N1, MDCK
CCRF-CEM = assay: cells; conditions: Homo sapiens, 72 h
Human alphaherpesvirus 1 [6] = assay: microbe, parasite or virus in culture; conditions: Human alphaherpesvirus 1, KOS, HEL
Sindbis virus = type: functional, organism-based; conditions: Vero
[7] = test system: Mammalian orthoreovirus 1; type: functional, organism-based; conditions: Vero
Human alphaherpesvirus 1 [8] = assay: microbe, parasite or virus in culture; conditions: Human alphaherpesvirus 1, KOS, HEL; remark: listed apart in the source
Human alphaherpesvirus 3 [9] = assay: microbe, parasite or virus in culture; conditions: Human alphaherpesvirus 3, strain Oka vaccine, HEL
Influenza A virus [10] = type: functional, organism-based; conditions: H3N2, MDCK
Human alphaherpesvirus 2 = assay: microbe, parasite or virus in culture; conditions: Human alphaherpesvirus 2, strain G, HEL
in vitro = conditions: human, HEL cells
[11] = test system: Human immunodeficiency virus 2; assay: Antiviral activity against HIV2 ROD infected in human […] cells assessed as virus-induced CEM giant cell formation after 4 days; type: functional, organism-based; conditions: ISOLATE ROD
Human betaherpesvirus 5 [12] = assay: microbe, parasite or virus in culture; conditions: Human betaherpesvirus 5, AD169, HEL
Human respirovirus 3 = type: functional, organism-based; conditions: Vero
HeLa = assay: cells; conditions: Homo sapiens, 96 h
Coxsackievirus B4 = type: functional, organism-based; conditions: HeLa
Human alphaherpesvirus 3 [13] = assay: microbe, parasite or virus in culture; conditions: Human alphaherpesvirus 3, 07-1, HEL
Punta Toro virus = type: functional, organism-based; conditions: Vero

SMILES: O=c1[nH]c(=O)n([C@H]2C[C@H](O)[C@@H](CO)O2)cc1-c1cn(-c2ccc(Oc3ccccc3)cc2)nn1
- inhibition [1]: inactive
- IC50 (L1210): 0.5 µM
- inhibition (Influenza B virus): inactive
- EC50 (Vaccinia virus): 4.3 µM
- inhibition [2]: inactive
- EC50 (Human betaherpesvirus 5 [3]): 16.4 µM
- inhibition [4]: inactive
- inhibition (Influenza A virus [5]): inactive
- IC50 (CCRF-CEM): 0.8 µM
- EC50 (Human alphaherpesvirus 1 [6]): 31 µM
- inhibition (Sindbis virus): inactive
- inhibition [7]: inactive
- EC50 (Human alphaherpesvirus 1 [8]): 8.6 µM
- EC50 (Human alphaherpesvirus 3 [9]): 1.4 µM
- inhibition (Influenza A virus [10]): inactive
- EC50 (Human alphaherpesvirus 2): ≥ 43 µM
- CC50 at 72 h (in vitro): 0.45 µM
- MCC at 72 h (in vitro): 130 µM
- inhibition [11]: inactive
- EC50 (Human betaherpesvirus 5 [12]): 19.4 µM
- inhibition (Human respirovirus 3): inactive
- IC50 (HeLa): 0.28 µM
- inhibition (Coxsackievirus B4): inactive
- EC50 (Human alphaherpesvirus 3 [13]): 5.7 µM
- inhibition (Punta Toro virus): inactive

SMILES: O=c1[nH]c(=O)n([C@H]2C[C@H](O)[C@@H](CO)O2)cc1-c1cnnn1-c1ccc(Br)cc1
- IC50 (L1210): 61 µM
- EC50 (Vaccinia virus): > 100 µM
- IC50 (CCRF-CEM): 47 µM
- EC50 (Human alphaherpesvirus 1 [6]): > 100 µM
- EC50 (Human alphaherpesvirus 1 [8]): > 100 µM
- EC50 (Human alphaherpesvirus 2): > 100 µM
- MCC at 72 h (in vitro): > 100 µM
- IC50 (HeLa): 8 µM

SMILES: Nc1nc2c(ncn2COC(CO)CO)c(=O)[nH]1 [GANCICLOVIR]
- EC50 (Vaccinia virus): > 100 µM
- EC50 (Human alphaherpesvirus 1 [8]): 0.1 µM
- EC50 (Human alphaherpesvirus 2): 0.04 µM
- CC50 at 72 h (in vitro): > 250 µM
- MCC at 72 h (in vitro): > 250 µM

SMILES: O=c1[nH]c(=O)n([C@H]2C[C@H](O)[C@@H](CO)O2)cc1-c1cn(-c2ccc(Br)cc2)nn1
- inhibition [1]: inactive
- IC50 (L1210): 4.6 µM
- inhibition (Influenza B virus): inactive
- EC50 (Vaccinia virus): 31 µM
- inhibition [2]: inactive
- EC50 (Human betaherpesvirus 5 [3]): 25 µM
- inhibition [4]: inactive
- inhibition (Influenza A virus [5]): inactive
- IC50 (CCRF-CEM): 1.8 µM
- EC50 (Human alphaherpesvirus 1 [6]): 132 µM
- inhibition (Sindbis virus): inactive
- inhibition [7]: inactive
- EC50 (Human alphaherpesvirus 1 [8]): 132 µM
- EC50 (Human alphaherpesvirus 3 [9]): 2.6 µM
- inhibition (Influenza A virus [10]): inactive
- EC50 (Human alphaherpesvirus 2): ≥ 100 µM
- CC50 at 72 h (in vitro): 1 µM
- MCC at 72 h (in vitro): ≥ 44 µM
- inhibition [11]: inactive
- EC50 (Human betaherpesvirus 5 [12]): 45 µM
- inhibition (Human respirovirus 3): inactive
- IC50 (HeLa): 1.37 µM
- inhibition (Coxsackievirus B4): inactive
- EC50 (Human alphaherpesvirus 3 [13]): 14 µM
- inhibition (Punta Toro virus): inactive

SMILES: O=c1[nH]c(=O)n([C@H]2C[C@H](O)[C@@H](CO)O2)cc1-c1cnnn1-c1c(F)cccc1F
- IC50 (L1210): 10 µM
- EC50 (Vaccinia virus): > 100 µM
- IC50 (CCRF-CEM): 12 µM
- EC50 (Human alphaherpesvirus 1 [6]): > 100 µM
- EC50 (Human alphaherpesvirus 1 [8]): > 100 µM
- EC50 (Human alphaherpesvirus 2): > 100 µM
- MCC at 72 h (in vitro): > 100 µM
- IC50 (HeLa): 5 µM

SMILES: CC(C)c1ccc(-n2cc(-c3cn([C@H]4C[C@H](O)[C@@H](CO)O4)c(=O)[nH]c3=O)nn2)cc1
- inhibition [1]: inactive
- IC50 (L1210): 29 µM
- inhibition (Influenza B virus): inactive
- EC50 (Vaccinia virus): > 10 µM
- inhibition [2]: inactive
- EC50 (Human betaherpesvirus 5 [3]): 185 µM
- inhibition [4]: inactive
- inhibition (Influenza A virus [5]): inactive
- IC50 (CCRF-CEM): 22 µM
- EC50 (Human alphaherpesvirus 1 [6]): > 10 µM
- inhibition (Sindbis virus): inactive
- inhibition [7]: inactive
- EC50 (Human alphaherpesvirus 1 [8]): > 10 µM
- EC50 (Human alphaherpesvirus 3 [9]): 20 µM
- inhibition (Influenza A virus [10]): inactive
- EC50 (Human alphaherpesvirus 2): > 10 µM
- CC50 at 72 h (in vitro): 7.4 µM
- MCC at 72 h (in vitro): > 240 µM
- inhibition [11]: inactive
- EC50 (Human betaherpesvirus 5 [12]): 240 µM
- inhibition (Human respirovirus 3): inactive
- IC50 (HeLa): 6.2 µM
- inhibition (Coxsackievirus B4): inactive
- EC50 (Human alphaherpesvirus 3 [13]): 97 µM
- inhibition (Punta Toro virus): inactive

SMILES: O=c1[nH]c(=O)n([C@H]2C[C@H](O)[C@@H](CO)O2)cc1-c1cn(-c2ccccc2)nn1
- inhibition [1]: inactive
- IC50 (L1210): 204 µM
- inhibition (Influenza B virus): inactive
- EC50 (Vaccinia virus): > 50 µM
- inhibition [2]: inactive
- EC50 (Human betaherpesvirus 5 [3]): > 270 µM
- inhibition [4]: inactive
- inhibition (Influenza A virus [5]): inactive
- IC50 (CCRF-CEM): 75 µM
- EC50 (Human alphaherpesvirus 1 [6]): > 50 µM
- inhibition (Sindbis virus): inactive
- inhibition [7]: inactive
- EC50 (Human alphaherpesvirus 1 [8]): > 50 µM
- EC50 (Human alphaherpesvirus 3 [9]): > 270 µM
- inhibition (Influenza A virus [10]): inactive
- EC50 (Human alphaherpesvirus 2): > 50 µM
- CC50 at 72 h (in vitro): 270 µM
- MCC at 72 h (in vitro): 270 µM
- inhibition [11]: inactive
- EC50 (Human betaherpesvirus 5 [12]): > 270 µM
- inhibition (Human respirovirus 3): inactive
- IC50 (HeLa): 56 µM
- inhibition (Coxsackievirus B4): inactive
- EC50 (Human alphaherpesvirus 3 [13]): > 270 µM
- inhibition (Punta Toro virus): inactive

SMILES: CC(C)c1ccc(-n2nncc2-c2cn([C@H]3C[C@H](O)[C@@H](CO)O3)c(=O)[nH]c2=O)cc1
- IC50 (L1210): > 200 µM
- EC50 (Vaccinia virus): > 100 µM
- IC50 (CCRF-CEM): > 200 µM
- EC50 (Human alphaherpesvirus 1 [6]): > 100 µM
- EC50 (Human alphaherpesvirus 1 [8]): > 100 µM
- EC50 (Human alphaherpesvirus 2): > 100 µM
- MCC at 72 h (in vitro): > 100 µM
- IC50 (HeLa): > 200 µM

SMILES: O=c1[nH]c(=O)n([C@H]2C[C@H](O)[C@@H](CO)O2)cc1-c1cnnn1-c1ccc(Oc2ccccc2)cc1
- IC50 (L1210): 134 µM
- EC50 (Vaccinia virus): > 100 µM
- IC50 (CCRF-CEM): 107 µM
- EC50 (Human alphaherpesvirus 1 [6]): > 100 µM
- EC50 (Human alphaherpesvirus 1 [8]): > 100 µM
- EC50 (Human alphaherpesvirus 2): > 100 µM
- MCC at 72 h (in vitro): > 100 µM
- IC50 (HeLa): 42 µM

SMILES: NC(=O)c1ncn([C@@H]2O[C@H](CO)[C@@H](O)[C@H]2O)n1 [RIBAVIRIN]
- EC50 (Vaccinia virus): > 250 µM
- EC50 (Human betaherpesvirus 5 [3]): > 100 µM
- EC50 (Human alphaherpesvirus 1 [6]): > 250 µM
- EC50 (Human alphaherpesvirus 1 [8]): > 250 µM
- EC50 (Human alphaherpesvirus 2): > 250 µM
- CC50 at 72 h (in vitro): > 250 µM
- MCC at 72 h (in vitro): > 250 µM
- EC50 (Human betaherpesvirus 5 [12]): > 100 µM

SMILES: O=c1[nH]c(=O)n([C@H]2C[C@H](O)[C@@H](CO)O2)cc1-c1cn(-c2cc(F)cc(F)c2)nn1
- inhibition [1]: inactive
- inhibition (Influenza B virus): inactive
- EC50 (Vaccinia virus): > 220 µM
- inhibition [2]: inactive
- EC50 (Human betaherpesvirus 5 [3]): > 50 µM
- inhibition [4]: inactive
- inhibition (Influenza A virus [5]): inactive
- EC50 (Human alphaherpesvirus 1 [6]): > 220 µM
- inhibition (Sindbis virus): inactive
- inhibition [7]: inactive
- EC50 (Human alphaherpesvirus 1 [8]): > 220 µM
- EC50 (Human alphaherpesvirus 3 [9]): > 50 µM
- inhibition (Influenza A virus [10]): inactive
- EC50 (Human alphaherpesvirus 2): > 220 µM
- CC50 at 72 h (in vitro): 36 µM
- MCC at 72 h (in vitro): 220 µM
- inhibition [11]: inactive
- EC50 (Human betaherpesvirus 5 [12]): > 50 µM
- inhibition (Human respirovirus 3): inactive
- inhibition (Coxsackievirus B4): inactive
- EC50 (Human alphaherpesvirus 3 [13]): > 50 µM
- inhibition (Punta Toro virus): inactive

SMILES: Nc1nc2c(ncn2COCCO)c(=O)[nH]1 [ACYCLOVIR]
- EC50 (Vaccinia virus): > 250 µM
- EC50 (Human alphaherpesvirus 1 [8]): 10 µM
- CC50 at 72 h (in vitro): > 130 µM
- MCC at 72 h (in vitro): > 50 µM
- EC50 (Human alphaherpesvirus 3 [13]): 16.5 µM

SMILES: O=c1[nH]cc(F)c(=O)[nH]1 [FLUOROURACIL]
- IC50 (L1210): 0.56 µM
- IC50 (CCRF-CEM): 14 µM
- IC50 (HeLa): 0.57 µM

SMILES: O=c1[nH]c(=O)n([C@H]2C[C@H](O)[C@@H](CO)O2)cc1/C=C/Br [BRIVUDINE]
- EC50 (Human alphaherpesvirus 1 [8]): 6 µM
- EC50 (Human alphaherpesvirus 2): 180 µM
- CC50 at 72 h (in vitro): > 250 µM
- MCC at 72 h (in vitro): > 250 µM
- EC50 (Human alphaherpesvirus 3 [13]): 54.4 µM

SMILES: Nc1ccn(C[C@@H](CO)OCP(=O)(O)O)c(=O)n1 [CIDOFOVIR]
- EC50 (Human betaherpesvirus 5 [3]): 0.4 µM
- EC50 (Human alphaherpesvirus 1 [6]): 0.8 µM
- EC50 (Human alphaherpesvirus 1 [8]): 0.8 µM
- EC50 (Human alphaherpesvirus 2): 1.4 µM
- CC50 at 72 h (in vitro): > 250 µM
- MCC at 72 h (in vitro): > 250 µM
